Assay results: the supplement of paper PMC10307832

Experiments:
Test in all cases: relative viability (nuclei count vs DMSO), 5 days (fraction); higher = more cells survive
[1] = test system: NCI-H1355; conditions: first compound 1 µM
Outline: (§1)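 Cells from lung cancer lines were seeded into 1536-well plates and, one day later, dosed by pin tool. Treatments were either a single drug or a fixed dose of an anchor drug with five library-drug doses (not always all listed) in √10 steps. After 5 days, nuclei were stained in a one-step fixation (final 0.05% Triton X-100, 1% formaldehyde, 1 ug/ml Hoechst) and counted on 4× images, and relative viability is the treated-to-vehicle nuclei ratio, as the median of duplicate plates.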

[2] = test system: NCI-H2405
Outline: as §1

[3] = test system: NCI-H2342
Outline: as §1

[4] = test system: NCI-H2228
Outline: as §1

[5] = test system: CAL-12T
Outline: as §1

[6] = test system: NCI-H520
Outline: as §1

[7] = test system: HCC-15
Outline: as §1

[8] = test system: NCI-H1734
Outline: as §1

[9] = test system: NCI-H1755
Outline: as §1

[10] = test system: NCI-H322M
Outline: as §1

[11] = test system: LCLC-97TM1
Outline: as §1

SMILES: CCN(CC)CCCCNc1ncc2cc(-c3cc(OC)cc(OC)c3)c(NC(=O)NC(C)(C)C)nc2n1 + CC(=O)Nc1cccc(-n2c(=O)n(C3CC3)c(=O)c3c(Nc4ccc(I)cc4F)n(C)c(=O)c(C)c32)c1 [Trametinib] (partner 0.02 µM)
- relative viability [1]: 0.382
- relative viability ([2]; first compound 0.01 µM): 0.574
- relative viability ([2]; first compound 0.03162 µM): 0.669
- relative viability ([2]; first compound 0.1 µM): 0.796
- relative viability ([2]; first compound 0.3162 µM): 0.655
- relative viability ([2]; first compound 1 µM): 0.5
- relative viability ([3]; first compound 0.01 µM): 0.787
- relative viability ([3]; first compound 0.03162 µM): 0.783
- relative viability ([3]; first compound 0.1 µM): 0.815
- relative viability ([3]; first compound 0.3162 µM): 0.858
- relative viability ([3]; first compound 1 µM): 0.928
- relative viability ([4]; first compound 0.01 µM): 0.449
- relative viability ([4]; first compound 0.03162 µM): 0.551
- relative viability ([4]; first compound 0.1 µM): 0.311
- relative viability ([4]; first compound 0.3162 µM): 0.543
- relative viability ([4]; first compound 1 µM): 0.309
- relative viability ([5]; first compound 0.01 µM): 0.3
- relative viability ([5]; first compound 0.03162 µM): 0.338
- relative viability ([5]; first compound 0.1 µM): 0.372
- relative viability ([5]; first compound 0.3162 µM): 0.261
- relative viability ([5]; first compound 1 µM): 0.333
- relative viability ([6]; first compound 0.01 µM): 0.684
- relative viability ([6]; first compound 0.03162 µM): 0.538
- relative viability ([6]; first compound 0.1 µM): 0.722
- relative viability ([6]; first compound 0.3162 µM): 0.287
- relative viability ([6]; first compound 1 µM): 0.216
- relative viability ([7]; first compound 0.01 µM): 0.427
- relative viability ([7]; first compound 0.03162 µM): 0.367
- relative viability ([7]; first compound 0.1 µM): 0.414
- relative viability ([7]; first compound 0.3162 µM): 0.42
- relative viability ([7]; first compound 1 µM): 0.361
- relative viability ([8]; first compound 0.01 µM): 0.665
- relative viability ([8]; first compound 0.03162 µM): 0.678
- relative viability ([8]; first compound 0.1 µM): 0.627
- relative viability ([8]; first compound 0.3162 µM): 0.581
- relative viability ([8]; first compound 1 µM): 0.407
- relative viability ([9]; first compound 0.01 µM): 0.83
- relative viability ([9]; first compound 0.03162 µM): 0.776
- relative viability ([9]; first compound 0.1 µM): 0.759
- relative viability ([9]; first compound 0.3162 µM): 0.827
- relative viability ([9]; first compound 1 µM): 0.55
- relative viability ([10]; first compound 0.01 µM): 0.514
- relative viability ([10]; first compound 0.03162 µM): 0.49
- relative viability ([10]; first compound 0.1 µM): 0.436
- relative viability ([10]; first compound 0.3162 µM): 0.339
- relative viability ([10]; first compound 1 µM): 0.488
- relative viability ([11]; first compound 0.01 µM): 0.161
- relative viability ([11]; first compound 0.03162 µM): 0.189
- relative viability ([11]; first compound 0.1 µM): 0.216
- relative viability ([11]; first compound 0.3162 µM): 0.168
- relative viability ([11]; first compound 1 µM): 0.185
